Data on one compound can be found in PMC9667936, “Functional mapping of the 14-3-3 hub protein as a guide to design 14-3-3 molecular glues” (Chemical Science, 2022).

The target in the assay is T1, 14-3-3γ (Homo sapiens, UniProt P61981).
T1 construct: made in house; host or cells: E. coli NiCo21 (DE3)
T1 sequence (P61981 1-247): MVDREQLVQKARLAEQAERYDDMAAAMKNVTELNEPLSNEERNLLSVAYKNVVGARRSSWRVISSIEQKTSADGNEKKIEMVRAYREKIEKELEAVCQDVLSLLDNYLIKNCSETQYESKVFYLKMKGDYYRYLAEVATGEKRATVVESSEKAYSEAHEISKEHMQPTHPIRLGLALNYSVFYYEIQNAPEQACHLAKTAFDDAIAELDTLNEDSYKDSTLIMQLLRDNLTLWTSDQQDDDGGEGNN
Kind of assay: Fluorescence anisotropy (FA) binary binding study: 14-3-3 titrated to fluorescein-labelled peptide. Particulars: for ΔG (FA): Table S1; for Affinity Kd: Table S4, point-mutated peptides, FA, 10 nM FITC-labelled peptide. In outline:
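N-terminal His6-tagged full-length human 14-3-3γ expressed in E. coli, Ni-NTA purified and dialyzed into 25 mM HEPES pH 8.0, 100 mM NaCl, 10 mM MgCl2, 500 μM TCEP. Tag-cleaved 14-3-3σ truncated after T231 used for crystallography. Labelled peptides made by Fmoc solid-phase synthesis.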
(In fluorescence polarisation assays a small probe gives low polarisation when free and higher when bound to something large.)

Where a SMILES comes first, the peptide text is derived from it. [ ]: non-standard residue; d: D form. ξ: configuration not given here. Phe(4-NO2) = N[C@@H](Cc1ccc([N+](=O)[O-])cc1)C(=O)O; ξAla(4-thiazolyl) = NC(Cc1cscn1)C(=O)O; pS = N[C@@H](COP(=O)(O)O)C(=O)O; Nva = CCC[C@H](N)C(=O)O; ξβ3hS = NC(CO)CC(=O)O; βAla = NCCC(=O)O

`CCC[C@H](NC(=O)[C@H](N)CCCCN)C(=O)N[C@@H](Cc1ccc([N+](=O)[O-])cc1)C(=O)NC(Cc1cscn1)C(=O)N[C@@H](COP(=O)(O)O)C(=O)N[C@@H](Cc1ccc([N+](=O)[O-])cc1)C(=O)NC(CO)CC(=O)NCCC(=O)N[C@@H](Cc1ccc([N+](=O)[O-])cc1)C(=O)N[C@@H](CCCCN)C(N)=O` (stereo partly drawn) [compound 1] (H-[dK][Nva][Phe(4-NO2)][ξAla(4-thiazolyl)][pS][Phe(4-NO2)][ξβ3hS][βAla][Phe(4-NO2)]K-NH2): the “ΔG (FA)” value was -10.5 kcal/mol (calculated from FA KD, mean of n = 3); -10.6 kcal/mol (from FA KD, replicate 1); -10.6 kcal/mol (from FA KD, replicate 2); -10.4 kcal/mol (from FA KD, replicate 3). For the same compound, the ΔG reads like this: (Table S2, calculated from FA KD, mean of n = 3) -10,53 kcal/mol; (Table S2, from FA KD, replicate 1) -10,61 kcal/mol; (Table S2, from FA KD, replicate 2) -10,56 kcal/mol; (Table S2, from FA KD, replicate 3) -10,41 kcal/mol; (Table S4, calculated from FA Kd, mean of n = 3) -9.8 kcal/mol; (Table S4, from FA Kd, replicate 1) -9.9 kcal/mol. The ΔG runs as follows: (Table S4, from FA Kd, replicate 2) -9.7 kcal/mol; (Table S4, from FA Kd, replicate 3) -9.7 kcal/mol. Moreover, the “Affinity Kd” value (replicate 1) came out at 52 nM, the “Affinity Kd” value (replicate 2) is 71 nM and the “Affinity Kd” value (replicate 3) came to 74 nM. Besides, for the setting “from FA KD”, the “free binding energy ΔG (FA)” value was -10.5 kcal/mol.
